Measured values reported in patent US20110028504A1, “Formulation of radioprotective alpha beta unsaturated aryl sulfones” (ONCONOVA THERAPEUTICS, INC., priority 2005, published 2011).
“Also recorded” adds a separate entry of the source. Marks after values point to notes of the source that are not given here.

Test: pH stability testing at 75° C. (HPLC)
Type: physicochemical
Method: (§1) The drug is dissolved in different pH buffers as outlined in Table 20. One hundred mL of each solution is prepared in a volumetric flask. Each solution is filtered through a 0.22 um filter. Approximately, four mL of the above solution is placed in 5 ml ampoules and sealed by a propane torch. The pH of the solution is determined at time zero and at each time interval. All the ampoules are placed in a 75° C. constant temperature oven. Any color changes or precipitation in the solution during the sample collection is visually observed. Concentration of the drug is determined at time zero and other time intervals by HPLC.
as §1, with “prepared in volumetric flask.” for “prepared in a volumetric flask.”, “filtered through 0.22 um” for “filtered through a 0.22 um”, “by HPLC. The pH and drug content of each sample are determined.” for “by HPLC.”
The data from the pH stability study is analyzed by plotting Log (conc.) versus time.
The rate constant for the degradation is determined using a linear regression at each individual pH.

With O=C([O-])c1ccc(/C=C/S(=O)(=O)Cc2ccc(Cl)cc2)cc1.[Na+] [ON.1210.Na, (E)-4-Carboxystyryl-4-chlorobenzylsulfone, Sodium Salt] the pH-stability profile (aqueous buffers pH 4 to 9, 75° C., Sodium Salt) was “better stability at neutral and biological pH but degradation is rapid under acidic condition; also recorded: dramatically improved as the pH is increased towards the neutral pH”, the “order of the degradation reaction” value (aqueous buffers, 75° C., Sodium Salt) was “pseudo-first-order rate; also recorded: pseudo first order reaction” and the “stability in an aqueous environment” value (biological pH) was “quite stable in an aqueous environment at biological pH”. The “Kobs, first order rate constant for the degradation” value (shortened to “Kobs, first order rate constant”) (pH 4.0, 75° C.) was 0.0621 day⁻¹, the “Concentration of the ON.1210.Na determined by HPLC during the stability study” value (from here on “Concentration of the ON.1210.Na”) (pH 4 buffer, 75° C., 0 hours, pH of the solution 4.03) was 2.7047 µg/mL and the “Concentration of the ON.1210.Na” value (pH 4 buffer, 75° C., 1 day, pH of the solution 4.3) was 2.659 µg/mL. For the same compound, the “Concentration of the ON.1210.Na” value (pH 4 buffer, 75° C., 3 days, pH of the solution 4.12) was 2.6331 µg/mL, the “Concentration of the ON.1210.Na” value (pH 4 buffer, 75° C., 5 days, pH of the solution 4.5) was 2.7344 µg/mL and the “Concentration of the ON.1210.Na” value (pH 4 buffer, 75° C., 42 days, pH of the solution 3.84) was 0.1171 µg/mL. For the same compound, the “Concentration of the ON.1210.Na” value (pH 4 buffer, 75° C., 54 days, pH of the solution 3.74) was 0.1614 µg/mL, the “Kobs, first order rate constant” value (pH 5.0, 75° C.) was 0.0295 day⁻¹ and the “Concentration of the ON.1210.Na” value (pH 5 buffer, 75° C., 0 hours, pH of the solution 5.03) was 4.4577 µg/mL. The “Concentration of the ON.1210.Na” value (pH 5 buffer, 75° C., 1 day, pH of the solution 5.18) was 4.394 µg/mL, the “Concentration of the ON.1210.Na” value (pH 5 buffer, 75° C., 3 days, pH of the solution 5.11) was 4.4295 µg/mL and the “Concentration of the ON.1210.Na” value (pH 5 buffer, 75° C., 5 days, pH of the solution 5.14) was 4.4714 µg/mL. For the same compound, the “Concentration of the ON.1210.Na” value (pH 5 buffer, 75° C., 10 days, pH of the solution 5.2) was 1.017 µg/mL, the “Concentration of the ON.1210.Na” value (pH 5 buffer, 75° C., 17 days, pH of the solution 5.21) was 0.8382 µg/mL and the “Concentration of the ON.1210.Na” value (pH 5 buffer, 75° C., 28 days, pH of the solution 4.71) was 1.3340 µg/mL. The “Concentration of the ON.1210.Na” value (pH 5 buffer, 75° C., 35 days, pH of the solution 4.93) was 2.8137 µg/mL, the “Concentration of the ON.1210.Na” value (pH 5 buffer, 75° C., 42 days) was 1.3049 µg/mL and the “Concentration of the ON.1210.Na” value (pH 5 buffer, 75° C., 54 days, pH of the solution 4.76) was 0.9539 µg/mL. For the same compound, the “Kobs, first order rate constant” value (pH 6.0, 75° C.) was 0.0069 day⁻¹, the “Concentration of the ON.1210.Na” value (pH 6 buffer, 75° C., 0 hours, pH of the solution 6.02) was 22.39 µg/mL and the “Concentration of the ON.1210.Na” value (pH 6 buffer, 75° C., 1 day, pH of the solution 6.12) was 22.3 µg/mL. The “Concentration of the ON.1210.Na” value (pH 6 buffer, 75° C., 3 days, pH of the solution 6.21) was 22.36 µg/mL, the “Concentration of the ON.1210.Na” value (pH 6 buffer, 75° C., 5 days, pH of the solution 6.14) was 22.4945 µg/mL and the “Concentration of the ON.1210.Na” value (pH 6 buffer, 75° C., 10 days, pH of the solution 6.17) was 19.0863 µg/mL. For the same compound, the “Concentration of the ON.1210.Na” value (pH 6 buffer, 75° C., 17 days, pH of the solution 6.21) was 18.15 µg/mL, the “Concentration of the ON.1210.Na” value (pH 6 buffer, 75° C., 28 days, pH of the solution 5.81) was 17.5401 µg/mL and the “Concentration of the ON.1210.Na” value (pH 6 buffer, 75° C., 35 days, pH of the solution 5.92) was 17.3979 µg/mL. For the same compound, the “Concentration of the ON.1210.Na” value (pH 6 buffer, 75° C., 42 days, pH of the solution 5.94) was 16 µg/mL, the “Concentration of the ON.1210.Na” value (pH 6 buffer, 75° C., 54 days, pH of the solution 5.90) was 14.7174 µg/mL and the “Kobs, first order rate constant” value (pH 7.4, 75° C.) was 0.0037 day⁻¹. For the same compound, the “Concentration of the ON.1210.Na” value (pH 7.4 buffer, 75° C., 0 hours, pH of the solution 7.41) was 485.952 µg/mL, the “Concentration of the ON.1210.Na” value (pH 7.4 buffer, 75° C., 1 day, pH of the solution 7.42) was 485.8206 µg/mL and the “Concentration of the ON.1210.Na” value (pH 7.4 buffer, 75° C., 3 days, pH of the solution 7.52) was 481.4637 µg/mL. The “Concentration of the ON.1210.Na” value (pH 7.4 buffer, 75° C., 5 days, pH of the solution 7.44) was 484.009 µg/mL, the “Concentration of the ON.1210.Na” value (pH 7.4 buffer, 75° C., 10 days, pH of the solution 7.42) was 473.2525 µg/mL and the “Concentration of the ON.1210.Na” value (pH 7.4 buffer, 75° C., 17 days, pH of the solution 7.41) was 466.5611 µg/mL. The “Concentration of the ON.1210.Na” value (pH 7.4 buffer, 75° C., 28 days, pH of the solution 7.2) was 434.5598 µg/mL, the “Concentration of the ON.1210.Na” value (pH 7.4 buffer, 75° C., 35 days, pH of the solution 7.34) was 428.5503 µg/mL and the “Concentration of the ON.1210.Na” value (pH 7.4 buffer, 75° C., 42 days, pH of the solution 7.36) was 416.3353 µg/mL. For the same compound, the “Concentration of the ON.1210.Na” value (pH 7.4 buffer, 75° C., 54 days, pH of the solution 7.31) was 403.267 µg/mL, the “Kobs, first order rate constant” value (pH 8.0, 75° C.) was 0.0064 day⁻¹ and the “Concentration of the ON.1210.Na” value (pH 8.0 buffer, 75° C., 0 hours, pH of the solution 8.01) was 494.8540 µg/mL. The “Concentration of the ON.1210.Na” value (pH 8.0 buffer, 75° C., 1 day, pH of the solution 8.08) was 493.8002 µg/mL, the “Concentration of the ON.1210.Na” value (pH 8.0 buffer, 75° C., 3 days, pH of the solution 8.04) was 485.8134 µg/mL and the “Concentration of the ON.1210.Na” value (pH 8.0 buffer, 75° C., 5 days, pH of the solution 7.98) was 486.042 µg/mL. For the same compound, the “Concentration of the ON.1210.Na” value (pH 8.0 buffer, 75° C., 10 days, pH of the solution 7.98) was 462.5487 µg/mL, the “Concentration of the ON.1210.Na” value (pH 8.0 buffer, 75° C., 17 days, pH of the solution 8.02) was 441.454 µg/mL and the “Concentration of the ON.1210.Na” value (pH 8.0 buffer, 75° C., 28 days, pH of the solution 7.81) was 398.9563 µg/mL. For the same compound, the “Concentration of the ON.1210.Na” value (pH 8.0 buffer, 75° C., 35 days, pH of the solution 7.33, new degradation product with retention time 4.52 min) was 249.7589** μg/mL, the “Concentration of the ON.1210.Na” value (pH 8.0 buffer, 75° C., 42 days, pH of the solution 7.36) was 378.4188 µg/mL and the “Concentration of the ON.1210.Na” value (pH 8.0 buffer, 75° C., 54 days, pH of the solution 7.9) was 353.5676 µg/mL. The “Kobs, first order rate constant” value (pH 9.0, 75° C.) was 0.0104 day⁻¹, the “Concentration of the ON.1210.Na” value (pH 9.0 buffer, 75° C., 0 hours, pH of the solution 9.02) was 475.7458 µg/mL and the “Concentration of the ON.1210.Na” value (pH 9.0 buffer, 75° C., 1 day, pH of the solution 9.1) was 463.3368 µg/mL. The “Concentration of the ON.1210.Na” value (pH 9.0 buffer, 75° C., 3 days, pH of the solution 9.12) was 436.1314 µg/mL, the “Concentration of the ON.1210.Na” value (pH 9.0 buffer, 75° C., 5 days, pH of the solution 8.72) was 422.51 µg/mL and the “Concentration of the ON.1210.Na” value (pH 9.0 buffer, 75° C., 10 days, pH of the solution 8.74) was 379.1650 µg/mL. For the same compound, the “Concentration of the ON.1210.Na” value (pH 9.0 buffer, 75° C., 17 days, pH of the solution 8.75) was 351.6448 µg/mL, the “Concentration of the ON.1210.Na” value (pH 9.0 buffer, 75° C., 28 days, pH of the solution 8.53) was 304.3917 µg/mL and the “Concentration of the ON.1210.Na” value (pH 9.0 buffer, 75° C., 35 days, pH of the solution 8.46, two new degradation products with retention time of 4.52 and 3.6 minutes) was 199.584*** μg/mL. For the same compound, the “Concentration of the ON.1210.Na” value (pH 9.0 buffer, 75° C., 42 days, pH of the solution 8.45) was 300.1106 µg/mL and the “Concentration of the ON.1210.Na” value (pH 9.0 buffer, 75° C., 54 days, pH of the solution 8.47) was 267.741 µg/mL.
